Earlier results, collected in patent US20150071857A1, “STEROID HORMONE AND CHOLESTEROL PATHWAYS AS ONE UNIFIED HOMEOSTATIC SYSTEM” (LIGAND PHARMACEUTICALS, INC., priority 2012, published 2015).
Where two headings read alike, the source gives them in different places. One block for each compound: values may come before it.

How the values were obtained:
[1] = high dose, on top of statin therapy
[2] = parenterally formulated progestin-only contraceptive, women
[3] = large WHI trials
[4] = high-dose, postmenopausal women

SMILES: O=C(O)c1cccnc1 [niacin]
cardiovascular events [1]: no significant reduction in cardiovascular events

thrombosis events [3]: doubled the thrombosis events
SMILES: CC(=O)O[C@]1(C(C)=O)CC[C@H]2[C@@H]3C[C@H](C)C4=CC(=O)CC[C@]4(C)[C@H]3CC[C@@]21C [Medroxyprogesterone acetate]
HDL-C change [2]: significant reduction in HDL-C

SMILES: O=c1c(-c2ccccc2)coc2ccccc12 [isoflavone]
HDL-C change [4]: significantly reduced
total T change [4]: significantly reduced
